In article PMC5750651, “Disposition, Metabolism and Histone Deacetylase and Acetyltransferase Inhibition Activity of Tetrahydrocurcumin and Other Curcuminoids” (Pharmaceutics, 2017):
“Also recorded” adds a separate entry of the source. Read-outs that look alike come from different tables or passages of the source.

Key:
COX-1 = target: T1, COX-1 (Ovis aries, UniProt P05979); assay: COX inhibitor screening assay kit, COX-1; assay type: biochemical; settings: mean ± SD
T1 construct: purchased Cayman Chemical 560131
T1 sequence (P05979 25-600): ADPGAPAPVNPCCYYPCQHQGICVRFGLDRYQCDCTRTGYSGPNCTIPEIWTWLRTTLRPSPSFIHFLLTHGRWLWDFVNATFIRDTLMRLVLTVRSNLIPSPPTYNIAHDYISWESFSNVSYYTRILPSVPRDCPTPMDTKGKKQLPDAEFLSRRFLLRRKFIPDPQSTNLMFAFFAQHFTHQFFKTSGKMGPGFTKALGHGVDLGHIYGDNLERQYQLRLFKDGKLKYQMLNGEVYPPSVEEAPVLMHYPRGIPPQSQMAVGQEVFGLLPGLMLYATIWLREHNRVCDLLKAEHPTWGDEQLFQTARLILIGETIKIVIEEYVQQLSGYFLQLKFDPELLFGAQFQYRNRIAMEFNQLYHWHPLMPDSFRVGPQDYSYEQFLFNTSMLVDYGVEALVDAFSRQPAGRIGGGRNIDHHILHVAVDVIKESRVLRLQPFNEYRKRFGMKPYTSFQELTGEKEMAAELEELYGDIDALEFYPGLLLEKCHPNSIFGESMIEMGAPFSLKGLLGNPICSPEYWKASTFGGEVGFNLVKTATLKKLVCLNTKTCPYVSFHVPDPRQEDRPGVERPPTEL
Procedure: The assay was performed in quadruplet using a COX Inhibitor Screening Assay Kit from Cayman Chemical (Cat. No. 560131) according to the manufacturer’s instructions.

COX-2 = target: T2, COX-2 (Homo sapiens, UniProt P35354); assay: COX inhibitor screening assay kit, COX-2; assay type: biochemical; settings: for COX-2/COX-1 IC50 ratio: COX-2 IC50 divided by COX-1 IC50
T2 construct: purchased Cayman Chemical 560131
T2 sequence (P35354 18-604): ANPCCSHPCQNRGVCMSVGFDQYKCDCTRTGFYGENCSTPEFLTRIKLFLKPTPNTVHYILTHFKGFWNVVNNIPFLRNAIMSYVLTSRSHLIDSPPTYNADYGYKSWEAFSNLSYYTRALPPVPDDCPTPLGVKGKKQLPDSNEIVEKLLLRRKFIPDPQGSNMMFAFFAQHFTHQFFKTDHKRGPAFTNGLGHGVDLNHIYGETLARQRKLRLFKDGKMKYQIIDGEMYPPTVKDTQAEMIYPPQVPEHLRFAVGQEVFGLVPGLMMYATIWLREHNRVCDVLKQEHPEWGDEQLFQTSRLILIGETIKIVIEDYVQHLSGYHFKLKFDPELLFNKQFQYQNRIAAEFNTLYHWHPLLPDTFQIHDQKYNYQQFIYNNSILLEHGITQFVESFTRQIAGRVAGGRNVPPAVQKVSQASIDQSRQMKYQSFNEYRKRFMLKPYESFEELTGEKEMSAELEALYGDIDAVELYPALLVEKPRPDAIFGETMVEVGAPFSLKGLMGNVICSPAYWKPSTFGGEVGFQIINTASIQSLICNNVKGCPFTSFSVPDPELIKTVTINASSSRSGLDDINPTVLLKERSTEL

Sup-T1 cells = assay: Cellular growth inhibition assay (MTS); assay type: cell-based; settings: for IC50: Homo sapiens
Procedure: The CellTiter 96® AQueous One Solution Cell Proliferation Assay (MTS, Promega, Madison, WI, USA) was used to measure proliferation inhibition of cultured cells. Briefly, Sup-T1 cells were cultured in RPMI 1640 supplemented with 10% FBS and 1% penicillin/streptomycin at 37 °C and 5% CO2. […] The MTS reagent was added and incubated for 4 h. […] Sup-T1 cells were used in this study because curcuminoids are thought in part to work via an HDAC inhibitor mechanism and as some HDACs are approved for some T-cell lymphomas, we used Sup-T1 cells because they are a T-cell lymphoma cell line that is established. To the best of our knowledge no other study has measured the effects of THC on Sup-T1 cells.
(§1) Data for the PCAF and HDAC1 inhibition and viability assays were used to derive percent changes based on no treatment controls. Each of three data sets were then fit to a 4-parameter logistic regression using SigmaPlot 12.2 to derive IC50 values, which were then used to determine the mean and SD.

HDAC1 = target: T3, HDAC1 (Homo sapiens, UniProt Q13547); assay: HDAC1 inhibitor screening assay kit (fluorescence); assay type: biochemical
T3 construct: purchased Cayman 10011564
T3 sequence (Q13547 whole entry): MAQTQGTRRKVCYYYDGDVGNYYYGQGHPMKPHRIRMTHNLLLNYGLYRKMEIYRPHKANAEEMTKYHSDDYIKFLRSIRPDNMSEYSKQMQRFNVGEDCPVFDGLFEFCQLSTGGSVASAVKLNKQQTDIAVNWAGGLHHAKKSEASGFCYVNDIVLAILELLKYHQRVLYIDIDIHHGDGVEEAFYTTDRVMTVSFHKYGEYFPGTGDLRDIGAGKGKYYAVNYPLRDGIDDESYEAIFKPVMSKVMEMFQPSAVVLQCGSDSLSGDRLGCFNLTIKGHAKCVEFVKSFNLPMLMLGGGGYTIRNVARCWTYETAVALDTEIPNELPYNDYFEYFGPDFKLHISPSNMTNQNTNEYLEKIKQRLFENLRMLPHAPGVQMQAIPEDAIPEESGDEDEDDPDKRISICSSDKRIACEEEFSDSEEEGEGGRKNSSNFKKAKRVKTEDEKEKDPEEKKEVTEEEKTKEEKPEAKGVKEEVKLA

PCAF = target: T4, PCAF (Homo sapiens, UniProt Q92831); assay: PCAF inhibitor screening assay kit (fluorescence); assay type: biochemical; settings: for IC50: mean ± SD
T4 construct: purchased Cayman 10006515
T4 sequence (Q92831 492-658 limits assumed): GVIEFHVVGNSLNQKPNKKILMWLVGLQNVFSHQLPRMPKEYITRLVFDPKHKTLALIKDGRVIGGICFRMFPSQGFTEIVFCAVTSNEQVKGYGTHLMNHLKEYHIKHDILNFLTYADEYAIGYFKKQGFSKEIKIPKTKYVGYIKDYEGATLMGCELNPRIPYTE
Procedure: Curcuminoids were tested for direct HDAC1 and PCAF inhibitory activity using the fluorescent-based HDAC1 or PCAF inhibitor screening assay kit ((HDAC1) 10011564, (PCAF) 10006515, Cayman, Ann Arbor, MI, USA) according to manufacturer’s instructions.
as §1

CYP2C9 = target: T5, CYP2C9 (Homo sapiens, UniProt P11712); assay: Vivid CYP450 screening kit, CYP2C9; assay type: in vitro ADME; settings: 0.01-100 μM, relative to sulfaphenazole
T5 construct: purchased Life Technologies P2860
T5 sequence (P11712 whole entry): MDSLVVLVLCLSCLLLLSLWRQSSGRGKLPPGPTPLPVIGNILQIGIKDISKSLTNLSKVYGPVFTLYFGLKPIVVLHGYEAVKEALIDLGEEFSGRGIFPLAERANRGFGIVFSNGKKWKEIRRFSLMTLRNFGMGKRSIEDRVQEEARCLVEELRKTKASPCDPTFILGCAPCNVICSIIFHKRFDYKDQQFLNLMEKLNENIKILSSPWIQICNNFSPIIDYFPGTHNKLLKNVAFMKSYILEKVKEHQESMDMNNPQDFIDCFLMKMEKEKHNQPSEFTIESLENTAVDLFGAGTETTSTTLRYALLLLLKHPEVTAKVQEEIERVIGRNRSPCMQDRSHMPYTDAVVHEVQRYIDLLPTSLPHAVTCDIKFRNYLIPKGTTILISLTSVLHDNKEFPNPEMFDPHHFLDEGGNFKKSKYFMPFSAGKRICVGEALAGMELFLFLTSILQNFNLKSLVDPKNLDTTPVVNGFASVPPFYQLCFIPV

CYP3A4 = CYP3A4 (Homo sapiens, UniProt P08684); assay: Vivid CYP450 screening kit, CYP3A4; settings: 0.01-100 μM, relative to ketoconazole; to a lesser extent than CYP2C9
Chain of CYP3A4 (P08684 whole entry): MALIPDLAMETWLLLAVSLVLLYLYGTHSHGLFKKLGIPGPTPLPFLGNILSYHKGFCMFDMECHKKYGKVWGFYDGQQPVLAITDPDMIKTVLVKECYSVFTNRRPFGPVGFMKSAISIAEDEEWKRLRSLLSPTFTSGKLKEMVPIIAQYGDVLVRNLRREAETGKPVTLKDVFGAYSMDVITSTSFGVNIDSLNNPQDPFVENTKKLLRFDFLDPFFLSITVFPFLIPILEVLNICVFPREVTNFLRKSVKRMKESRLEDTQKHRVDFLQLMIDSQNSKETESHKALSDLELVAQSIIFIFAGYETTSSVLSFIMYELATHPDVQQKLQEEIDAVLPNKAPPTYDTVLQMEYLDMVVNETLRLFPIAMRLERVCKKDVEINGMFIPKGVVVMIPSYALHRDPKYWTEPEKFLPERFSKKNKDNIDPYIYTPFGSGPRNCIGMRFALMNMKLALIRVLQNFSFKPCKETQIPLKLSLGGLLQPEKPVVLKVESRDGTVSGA
Procedure: (§2) CYP2C9, CYP3A4, CYP1A2 and CYP2D6 assays were performed to assess metabolism and inhibition of human P450 isozymes involved using Vivid® CYP450 screening kits and CYP450 BACULOSOMES® Plus Reagents. CYP450 BACULOSOMES® Plus Reagents express only one CYP450 enzyme, preventing metabolism by other CYP450s. For CYP2C9, the substrate was BOMF and the positive control inhibitor sulfaphenazole; for CYP3A4, DBOMF was the substrate and ketoconazole the positive control inhibitor; for CYP1A2, the substrate was EOMCC and the positive control inhibitor naphthoflavone; for CYP2D6, the substrate was EOMCC and the positive control inhibitor quinidine. The assays were performed using the excitation and emission wavelengths recommended by the manufacturer. […] The plate was incubated for 10 min at room temperature (25 ± 1 °C) on a plate shaker. Then, 10 μL of Vivid® Substrate was added to each well to start the reaction. […] The assay was done in triplicate. The reading was performed at 1 min intervals for 60 min. Inhibition was calculated as (1 − (X − B/A − B)) × 100%, where X was the average of compound fluorescence, A was the average of solvent control and B was the average of inhibition in the presence of positive inhibitor control. The percent inhibition was calculated relative to a fixed concentration of the positive control. […]

CYP1A2 = target: T6, CYP1A2 (Homo sapiens, UniProt P05177); assay: Vivid CYP450 screening kit, CYP1A2; settings: 0.01-100 μM
T6 sequence (P05177 1-516): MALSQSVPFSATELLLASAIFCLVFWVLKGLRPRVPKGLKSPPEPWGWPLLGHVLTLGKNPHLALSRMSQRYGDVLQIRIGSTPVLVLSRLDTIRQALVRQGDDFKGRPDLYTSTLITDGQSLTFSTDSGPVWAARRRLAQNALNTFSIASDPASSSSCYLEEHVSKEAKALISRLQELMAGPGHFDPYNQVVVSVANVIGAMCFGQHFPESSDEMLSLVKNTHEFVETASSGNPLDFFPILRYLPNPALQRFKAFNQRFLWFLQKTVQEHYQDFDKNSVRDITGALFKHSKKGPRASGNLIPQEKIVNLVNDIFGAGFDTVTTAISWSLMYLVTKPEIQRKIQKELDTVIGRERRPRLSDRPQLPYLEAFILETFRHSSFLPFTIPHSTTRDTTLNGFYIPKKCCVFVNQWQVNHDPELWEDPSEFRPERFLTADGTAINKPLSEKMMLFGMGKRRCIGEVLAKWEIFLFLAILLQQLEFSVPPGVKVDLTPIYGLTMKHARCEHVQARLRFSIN
Procedure: as §2

CYP2D6 = CYP2D6 (Homo sapiens, UniProt P10635); assay: Vivid CYP450 screening kit, CYP2D6; settings: 0.01-100 μM
Chain of CYP2D6 (P10635 whole entry): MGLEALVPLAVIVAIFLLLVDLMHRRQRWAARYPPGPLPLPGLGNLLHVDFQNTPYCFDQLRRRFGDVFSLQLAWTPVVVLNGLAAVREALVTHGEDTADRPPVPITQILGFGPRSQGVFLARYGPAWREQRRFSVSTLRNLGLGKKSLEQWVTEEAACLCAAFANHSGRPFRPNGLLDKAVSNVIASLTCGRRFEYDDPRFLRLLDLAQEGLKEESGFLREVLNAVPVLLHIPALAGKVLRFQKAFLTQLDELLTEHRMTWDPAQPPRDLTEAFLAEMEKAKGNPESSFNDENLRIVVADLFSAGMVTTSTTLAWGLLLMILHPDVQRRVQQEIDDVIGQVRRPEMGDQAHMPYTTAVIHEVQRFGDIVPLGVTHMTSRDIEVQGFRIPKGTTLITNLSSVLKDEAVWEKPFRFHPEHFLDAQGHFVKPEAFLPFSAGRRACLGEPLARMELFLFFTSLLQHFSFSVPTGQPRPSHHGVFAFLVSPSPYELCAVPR
Procedure: as §2

[1] = Total antioxidant capacity assay kit (ABTS, Trolox equivalents); settings: with respect to Trolox
[2] = test system: TNF-α release in Sup-T1 cells; assay: Cellular inflammatory cytokine release assay (TNF-α ELISA); assay type: cell-based, human; settings: Sup-T1 cells, 5, 10, 50 and 100 μM, versus no-treatment control
Procedure: Cell culture supernatant was collected and used to determine released TNF-α using the Human TNF-alpha DuoSet ELISA kit (DY210, R & D systems, Minneapolis, MN, USA) following the standard manufacturer’s protocol, optimized using recombinant TNF-α. […] The data were analyzed using SigmaPlot 12.2 (Systat Software Inc., San Jose, CA, USA).

[3] = target: T7, 15-lipoxygenase derived from soybean (Glycine max, UniProt P08170); assay: Lipoxygenase inhibitor screening assay kit; settings: for lipoxygenase inhibition (in words): 1, 10 and 250 μg/mL tested, versus control; for lowest concentration inhibiting lipoxygenase: soybean 15-lipoxygenase, linoleic acid substrate
T7 sequence (P08170 1-839): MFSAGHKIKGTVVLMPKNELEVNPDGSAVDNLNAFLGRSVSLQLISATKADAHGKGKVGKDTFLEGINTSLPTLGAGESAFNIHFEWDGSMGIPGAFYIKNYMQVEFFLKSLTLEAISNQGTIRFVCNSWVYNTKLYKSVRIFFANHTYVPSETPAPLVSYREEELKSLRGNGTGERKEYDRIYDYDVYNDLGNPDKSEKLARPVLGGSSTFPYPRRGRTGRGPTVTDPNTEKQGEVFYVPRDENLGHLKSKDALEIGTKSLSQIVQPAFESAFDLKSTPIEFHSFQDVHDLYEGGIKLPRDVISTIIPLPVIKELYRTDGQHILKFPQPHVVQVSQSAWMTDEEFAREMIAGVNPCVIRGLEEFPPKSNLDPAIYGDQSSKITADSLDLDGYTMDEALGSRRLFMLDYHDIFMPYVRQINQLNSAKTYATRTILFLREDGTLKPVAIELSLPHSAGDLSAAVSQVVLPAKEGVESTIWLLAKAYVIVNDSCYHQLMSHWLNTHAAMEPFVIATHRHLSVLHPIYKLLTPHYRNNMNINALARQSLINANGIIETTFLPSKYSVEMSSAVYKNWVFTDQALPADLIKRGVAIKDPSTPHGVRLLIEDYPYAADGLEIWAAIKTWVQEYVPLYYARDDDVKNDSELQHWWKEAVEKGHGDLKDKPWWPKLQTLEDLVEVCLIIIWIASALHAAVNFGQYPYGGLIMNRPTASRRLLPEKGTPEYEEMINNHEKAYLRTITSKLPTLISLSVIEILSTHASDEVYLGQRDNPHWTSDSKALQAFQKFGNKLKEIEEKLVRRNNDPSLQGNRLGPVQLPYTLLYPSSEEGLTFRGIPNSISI

[4] = Pharmacokinetic study of THC after oral gavage, serum and urine by UHPLC-MS/MS; settings: rat, 500 mg/kg oral
[5] = SUP-T1, read-out: Viability IC50

Row | Compound | IC50 (COX-1) [µM] | COX-2/COX-1 IC50 ratio (COX-2) | IC50 (PCAF) [µM] | CYP2C9 inhibition (in words) (CYP2C9) | CYP3A4 inhibition (in words) (CYP3A4) | CYP1A2 inhibition (in words) (CYP1A2) | CYP2D6 inhibition (in words) (CYP2D6) | concentration of greatest antioxidant effect [1] [µM] | change in TNF-α concentration (in words) [2] | lipoxygenase inhibition (in words) [3] | IC50 (Sup-T1 cells; [5]) [µM] | lowest concentration inhibiting lipoxygenase [3] [µM] | also measured
1 | COc1cc(/C=C/C(=O)COC(=O)/C=C/c2ccc(O)c(OC)c2)ccc1O [Calebin-A, calebin-A] | 1070 ± 490 | around 1 | 200 ± 31 | dose-dependent inhibition | dose-dependent inhibition | did not show a consistent dose-response inhibition | did not show a consistent dose-response inhibition | 100 | no dose-response change | did not show any activity |  |  | IC50 (COX-2; mean ± SD, read-out: COX-2 IC50): 784 ± 2200 µM; IC50 (Sup-T1 cells; Sup-T1 growth inhibition, MTS, mean ± SD, read-out: Viability IC50): 26.2 ± 17 µM; IC50 (HDAC1; mean ± SD): 61.3 ± 11 µM; fold less potent than curcumin, PCAF inhibition (PCAF; ratio of PCAF IC50): 6 fold; lipoxygenase inhibition (in words) ([3]; listed as calebin-A): no such inhibitory activity
2 | COc1cc(/C=C/C(=O)CC(=O)/C=C/c2ccc(O)c(OC)c2)ccc1O [Curcumin, curcumin] | 3390 ± 8980 |  | 33.1 ± 2.8 |  |  |  |  |  | slight decrease | inhibited soybean 1,5-lipoxygenase at all doses tested | 19 ± 11 | ≤ 1 | 
3 | COc1cc(CCC(=O)CC(=O)CCc2ccc(O)c(OC)c2)ccc1O [THC, tetrahydrocurcumin] | 918 ± 1300 | around 1 |  | dose-dependent inhibition | dose-dependent inhibition | did not show a consistent dose-response inhibition | did not show a consistent dose-response inhibition | 100 | no dose-response change | inhibited soybean 1,5-lipoxygenase at all doses tested; also recorded: potent lipoxygenase inhibition | 82 ± 116 | ≤ 1 | IC50 (COX-2): 1350 ± 3640 µM; maximal growth inhibition (Sup-T1 cells; Sup-T1 cells, up to 100 μM): ≤ 40%; HDAC1 inhibition (in words) (HDAC1; 0.1-250 μg/mL): no inhibitory activity; PCAF inhibition (in words) (PCAF; 0.1-250 μg/mL): no inhibitory activity; time of peak serum THC concentration [4]: 1 h; serum THC maxima of the two redistribution phases ([4]; at 6 and 24 h): about 1 μg/mL; maximum rate of urinary excretion ([4]; at 2 h): under 3 μg/h; total amount of THC excreted unchanged in urine ([4]; at 24 h): up to 8 μg; serum THC concentration found up to 20 h later ([4]; up to 20 h after the peak): greater than 1 μg/mL
